Reference: US12636274B2, “Pharmaceutical compositions and methods for systemic treatment of solid tumors” (7 HILLS INTERESTS LLC, priority 2014, dated 2026)

Legend:
[1] = biological target: LFA-1/ICAM-1 (Homo sapiens, UniProt P05107+P20701); test: LFA-1 dependent cell adhesion to ICAM-1; assay type: cell-based; conditions: FIG. 4; ICAM-1 and Cmpd 1 versus BSA, ICAM-1 alone, Ig and anti-integrin antibodies
Excerpt: Referring now to FIG. 4, a histogram is shown of induced LFA-1 ([…]) dependent cell adhesion to ICAM-1 in the presence of BSA, ICAM-1, ICAM-1 and a compound of Formula (I) (Cmpd 1), Ig, anti-α4, anti-αL, anti-β1, and anti-β2.
(§1) Activating all integrins is necessary for firm endothelial cell adhesion for extravasation.

[2] = biological target: α1b1/Collagen IV (Homo sapiens, UniProt P05556+P56199); test: Integrin activation, adhesion α1b1/Collagen IV; assay type: cell-based; set-up: key: Not Active: Not active: ≤2 fold increase in adhesion; conditions: 50% serum; n = 3
Excerpt: as §1

[3] = biological target: α2b1/Collagen I (Homo sapiens, UniProt P05556+P17301); test: Integrin activation, adhesion α2b1/Collagen I; assay type: cell-based; set-up: key: Not Active: Not active: ≤2 fold increase in adhesion; conditions: 50% serum; n = 3
Excerpt: as §1

[4] = biological target: aiibb3/Fibrinogen (Homo sapiens, UniProt P05106+P08514); test: Integrin activation, adhesion aiibb3/Fibrinogen; assay type: cell-based; set-up: key: Not Active: Not active: ≤2 fold increase in adhesion; conditions: 50% serum; n = 3
Excerpt: as §1

[5] = system: VCAM-1; test: Cell migration across VCAM-1 membrane toward SDF-1; assay type: cell-based; conditions: FIG. 5; different concentrations; SDF-1 in bottom part
Experimental: Referring now to FIG. 5, an apparatus for testing VCAM-1 and ICAM-1 cell migration, where the cells are initially placed in the top part of the apparatus including a member including VCAM-1 or ICAM-1, with the bottom part of the apparatus initially including SDF-1. Cell migration is then measured from top part to the bottom part for different concentration of CDPD 1, a compound of Formula (I) of VCAM-1 and ICAM-1 impregnated membrane.

[6] = system: CD3+ CD8+ and CD3+ CD4+ tumor infiltrating T-cells; test: Tumor infiltrating lymphocytes (TILs) by FACS in CT26 tumors; assay type: in vivo, Mouse (Mus musculus)
Experimental: On day 19 of treatment initiation tumors were isolated from study mice aseptically (n=5/group).
Tumor tissue was minced devoid of dead and necrotic tissue was mechanically disaggregated aseptically in RPMI medium without proteolytic enzymes in gentleMACS C-tubes using gentleMACS Octo Dissociator under the program 37C_m_TDK_1_30m (Miltenyi Biotec). Cell suspension was enriched for single cells by filtering the disaggregated mix through 70 μm cell strainer. Cells were pelleted at 300 g for 7 min at 4° C., washed twice with fresh complete media followed by FACS buffer containing PBS w/o calcium and magnesium (pH 7.4), 2% FBS and 0.05% sodium azide. Note: Proteolytic enzymes may chew up the antigen epitopes, therefore enzymatic dissociation is not performed.
Five million total viable cells were used as input for staining with the following fluorochrome conjugated antibodies for 30 min on ice in dark. Unbound stain was removed by washing cells in FACS buffer twice. […]
Unstained cells were used for setting up gates and focus single cells using INSPIRE acquisition software in Amnis FlowSight flow cytometer (Amnis Corporation, Seattle, WA) with 405, 488, 642 nm excitation lasers. […]
Before proceeding for FACS acquisition, we have recorded the total viable cell yield for each tumor sample. […] From the CD3 positive population gated out of viable 7AAD-ve population, the percentage of viable cells displaying CD3 positive signal was recorded using the statistics option in FACS software. […] Based on this information, yield per million cells was calculated and reported in results.
In addition, tumors were allowed to grow up to day 18 with continued Compound 1 dose, that decreased tumor growth resulting in a significant inhibition p<0.01 in the q.d. group compared to p<0.0001 in BID group. […] Upon non-enzymatic dissociation, cell viability was assessed and subjected to enumeration of CD3^+, CD4^+ or CD8^+ tumor infiltrating T-cells (detailed method, refer section 11).

[7] = Clinical symptoms in monkeys; assay type: in vivo

Sequence of α2b1/Collagen I (P17301 30-1181): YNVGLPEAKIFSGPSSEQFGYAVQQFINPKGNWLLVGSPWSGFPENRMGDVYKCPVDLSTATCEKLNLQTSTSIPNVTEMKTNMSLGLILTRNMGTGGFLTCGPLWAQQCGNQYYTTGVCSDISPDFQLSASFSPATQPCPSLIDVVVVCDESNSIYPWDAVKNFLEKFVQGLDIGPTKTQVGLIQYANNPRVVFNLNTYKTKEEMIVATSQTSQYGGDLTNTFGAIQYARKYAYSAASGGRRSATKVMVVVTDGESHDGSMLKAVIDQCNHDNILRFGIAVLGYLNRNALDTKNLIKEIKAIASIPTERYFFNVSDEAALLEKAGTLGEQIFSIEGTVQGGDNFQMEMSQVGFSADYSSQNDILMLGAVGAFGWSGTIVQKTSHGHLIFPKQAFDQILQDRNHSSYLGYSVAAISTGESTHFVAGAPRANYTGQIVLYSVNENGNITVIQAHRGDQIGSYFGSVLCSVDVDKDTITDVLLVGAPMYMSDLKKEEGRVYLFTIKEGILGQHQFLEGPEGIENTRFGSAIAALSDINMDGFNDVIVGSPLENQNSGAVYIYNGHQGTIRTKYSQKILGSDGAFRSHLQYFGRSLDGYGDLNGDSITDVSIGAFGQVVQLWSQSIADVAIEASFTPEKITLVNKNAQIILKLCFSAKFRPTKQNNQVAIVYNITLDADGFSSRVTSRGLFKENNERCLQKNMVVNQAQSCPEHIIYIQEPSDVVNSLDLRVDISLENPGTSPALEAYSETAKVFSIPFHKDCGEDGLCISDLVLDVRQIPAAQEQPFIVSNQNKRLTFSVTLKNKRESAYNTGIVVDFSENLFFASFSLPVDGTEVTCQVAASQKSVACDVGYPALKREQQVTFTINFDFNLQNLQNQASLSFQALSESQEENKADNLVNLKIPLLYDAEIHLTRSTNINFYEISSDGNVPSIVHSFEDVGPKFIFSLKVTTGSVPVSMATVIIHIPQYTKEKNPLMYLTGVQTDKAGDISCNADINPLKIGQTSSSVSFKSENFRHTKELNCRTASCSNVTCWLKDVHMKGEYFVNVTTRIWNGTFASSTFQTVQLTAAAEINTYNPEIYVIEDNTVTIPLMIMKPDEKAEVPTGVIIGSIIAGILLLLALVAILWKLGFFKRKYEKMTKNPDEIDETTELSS
Sequence of α2b1/Collagen I (P05556 21-798): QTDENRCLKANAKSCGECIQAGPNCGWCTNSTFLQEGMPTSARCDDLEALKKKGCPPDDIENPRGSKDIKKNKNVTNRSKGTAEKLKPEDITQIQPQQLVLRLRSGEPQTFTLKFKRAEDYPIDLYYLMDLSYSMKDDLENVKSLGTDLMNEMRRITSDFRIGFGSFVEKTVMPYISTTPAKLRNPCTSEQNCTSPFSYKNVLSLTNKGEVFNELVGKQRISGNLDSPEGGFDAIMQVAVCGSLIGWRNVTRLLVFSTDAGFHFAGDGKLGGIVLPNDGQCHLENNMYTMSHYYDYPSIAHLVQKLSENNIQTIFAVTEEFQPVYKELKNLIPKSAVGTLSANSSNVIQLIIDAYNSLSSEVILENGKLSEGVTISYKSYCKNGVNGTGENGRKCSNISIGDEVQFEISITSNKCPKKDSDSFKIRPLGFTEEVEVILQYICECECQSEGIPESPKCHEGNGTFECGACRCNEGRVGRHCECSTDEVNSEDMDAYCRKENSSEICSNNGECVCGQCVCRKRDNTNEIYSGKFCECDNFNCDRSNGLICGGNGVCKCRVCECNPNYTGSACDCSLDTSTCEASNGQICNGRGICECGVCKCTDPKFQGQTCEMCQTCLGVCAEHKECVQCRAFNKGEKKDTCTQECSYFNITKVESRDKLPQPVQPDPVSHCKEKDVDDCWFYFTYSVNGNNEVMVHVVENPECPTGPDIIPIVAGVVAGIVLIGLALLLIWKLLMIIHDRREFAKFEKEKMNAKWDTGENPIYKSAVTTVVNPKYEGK
Sequence of LFA-1/ICAM-1 (P20701 26-1170): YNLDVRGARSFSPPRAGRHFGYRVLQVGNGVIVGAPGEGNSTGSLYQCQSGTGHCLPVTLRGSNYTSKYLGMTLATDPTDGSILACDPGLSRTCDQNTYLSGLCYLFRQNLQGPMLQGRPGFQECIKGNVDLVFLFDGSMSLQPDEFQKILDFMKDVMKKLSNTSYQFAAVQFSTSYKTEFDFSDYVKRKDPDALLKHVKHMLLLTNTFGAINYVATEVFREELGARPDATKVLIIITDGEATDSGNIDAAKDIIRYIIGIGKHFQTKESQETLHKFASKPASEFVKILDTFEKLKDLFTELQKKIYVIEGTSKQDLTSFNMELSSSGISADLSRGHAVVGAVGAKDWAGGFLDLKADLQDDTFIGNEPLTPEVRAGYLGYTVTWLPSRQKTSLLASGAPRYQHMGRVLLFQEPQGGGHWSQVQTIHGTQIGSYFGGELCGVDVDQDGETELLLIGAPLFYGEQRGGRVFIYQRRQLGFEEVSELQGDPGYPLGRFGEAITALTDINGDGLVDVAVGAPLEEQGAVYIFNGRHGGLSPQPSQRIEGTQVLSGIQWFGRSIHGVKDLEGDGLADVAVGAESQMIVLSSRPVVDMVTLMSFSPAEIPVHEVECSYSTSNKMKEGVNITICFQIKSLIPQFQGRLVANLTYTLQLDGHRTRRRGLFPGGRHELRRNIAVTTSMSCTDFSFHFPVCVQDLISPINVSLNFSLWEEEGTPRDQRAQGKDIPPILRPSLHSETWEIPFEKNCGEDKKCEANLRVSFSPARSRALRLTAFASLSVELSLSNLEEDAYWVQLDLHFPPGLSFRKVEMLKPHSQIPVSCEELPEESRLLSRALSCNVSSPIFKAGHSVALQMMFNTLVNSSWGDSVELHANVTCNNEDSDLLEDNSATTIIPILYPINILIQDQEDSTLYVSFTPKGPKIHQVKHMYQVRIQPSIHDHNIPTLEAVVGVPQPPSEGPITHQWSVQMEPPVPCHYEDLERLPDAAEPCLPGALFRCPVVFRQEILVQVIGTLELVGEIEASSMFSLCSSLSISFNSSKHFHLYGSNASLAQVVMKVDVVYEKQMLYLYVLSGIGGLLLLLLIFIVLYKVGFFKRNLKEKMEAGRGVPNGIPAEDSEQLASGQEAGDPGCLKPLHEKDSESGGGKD
Sequence of LFA-1/ICAM-1 (P05107 23-769): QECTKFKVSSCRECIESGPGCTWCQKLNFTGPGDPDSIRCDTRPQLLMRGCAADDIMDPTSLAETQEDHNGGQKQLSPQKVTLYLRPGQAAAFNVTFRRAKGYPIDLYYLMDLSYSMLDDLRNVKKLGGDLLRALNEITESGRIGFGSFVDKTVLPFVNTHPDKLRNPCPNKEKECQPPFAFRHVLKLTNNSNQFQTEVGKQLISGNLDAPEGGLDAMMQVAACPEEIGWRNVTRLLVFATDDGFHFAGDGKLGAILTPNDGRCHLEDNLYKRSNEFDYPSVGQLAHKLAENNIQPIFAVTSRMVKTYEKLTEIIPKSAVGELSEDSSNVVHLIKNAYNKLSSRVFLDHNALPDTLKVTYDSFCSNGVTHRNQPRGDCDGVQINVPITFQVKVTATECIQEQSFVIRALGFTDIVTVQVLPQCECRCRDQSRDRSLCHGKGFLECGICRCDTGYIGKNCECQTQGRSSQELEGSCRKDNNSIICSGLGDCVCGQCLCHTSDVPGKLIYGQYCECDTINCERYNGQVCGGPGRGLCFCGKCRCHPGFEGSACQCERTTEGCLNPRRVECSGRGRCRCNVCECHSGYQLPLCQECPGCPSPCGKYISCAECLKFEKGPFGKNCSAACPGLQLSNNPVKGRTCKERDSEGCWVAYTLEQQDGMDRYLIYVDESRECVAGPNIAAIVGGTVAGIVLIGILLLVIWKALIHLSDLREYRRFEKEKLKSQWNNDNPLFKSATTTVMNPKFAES
Sequence of α1b1/Collagen IV (P56199 29-1179): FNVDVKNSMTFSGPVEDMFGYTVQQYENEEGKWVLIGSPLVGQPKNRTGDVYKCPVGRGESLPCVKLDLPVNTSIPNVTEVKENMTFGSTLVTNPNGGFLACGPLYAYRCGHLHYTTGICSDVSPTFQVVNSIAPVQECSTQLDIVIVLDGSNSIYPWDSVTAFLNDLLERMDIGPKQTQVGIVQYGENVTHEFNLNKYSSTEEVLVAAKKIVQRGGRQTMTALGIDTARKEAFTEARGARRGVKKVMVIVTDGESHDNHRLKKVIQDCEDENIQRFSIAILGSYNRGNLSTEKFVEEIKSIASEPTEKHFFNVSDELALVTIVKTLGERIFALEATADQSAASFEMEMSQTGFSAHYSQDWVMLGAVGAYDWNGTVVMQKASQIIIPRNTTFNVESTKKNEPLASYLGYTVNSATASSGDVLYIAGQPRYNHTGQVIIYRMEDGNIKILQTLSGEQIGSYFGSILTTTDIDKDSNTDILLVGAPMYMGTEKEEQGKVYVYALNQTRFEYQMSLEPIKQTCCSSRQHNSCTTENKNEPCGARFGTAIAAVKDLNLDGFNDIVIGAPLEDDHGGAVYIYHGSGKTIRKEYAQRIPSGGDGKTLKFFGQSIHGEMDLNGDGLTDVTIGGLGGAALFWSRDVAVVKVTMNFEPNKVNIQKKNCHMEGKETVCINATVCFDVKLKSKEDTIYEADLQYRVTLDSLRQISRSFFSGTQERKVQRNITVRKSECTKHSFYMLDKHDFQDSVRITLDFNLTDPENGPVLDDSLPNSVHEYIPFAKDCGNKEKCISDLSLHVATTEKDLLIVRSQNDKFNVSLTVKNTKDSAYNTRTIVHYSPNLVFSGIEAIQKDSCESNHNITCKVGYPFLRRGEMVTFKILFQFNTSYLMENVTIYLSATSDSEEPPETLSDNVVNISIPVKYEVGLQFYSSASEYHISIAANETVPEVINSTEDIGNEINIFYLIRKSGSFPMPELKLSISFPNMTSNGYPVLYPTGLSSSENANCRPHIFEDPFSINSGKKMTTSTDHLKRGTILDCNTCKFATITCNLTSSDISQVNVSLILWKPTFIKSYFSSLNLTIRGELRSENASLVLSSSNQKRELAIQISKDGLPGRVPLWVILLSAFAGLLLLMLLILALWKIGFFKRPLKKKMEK
Sequence of α1b1/Collagen IV (P05556 21-798): as the sequence (P05556 21-798) above

## O=C(OCCOCCOCCOC(=O)N(Cc1cccs1)Cc1cccs1)N(Cc1cccs1)Cc1cccs1 [Compound 1, 3-oxo-1-(2-thienyl)-2-(2-thienylmethyl)-4,7,10-trioxa-2-azadodecan-12-yl bis(2-thienylmethyl)carbamate]
[1]
  bound cells, adhesion to ICAM-1: highest bound cells
[2]
  Integrin Selectivity EC50 α1b1/Collagen IV: Not Active
[3]
  Integrin Selectivity EC50 α2b1/Collagen I: Not Active
[4]
  Integrin Selectivity EC50 aiibb3/Fibrinogen: Not Active
[5]
  cell migration, VCAM-1: migration enhancement
[6]; Study 3, day 19, compared to vehicle control
  CD3+ and CD4+ double positive cells in tumor: decreased trend
[6]; Study 3, day 19, compared to vehicle control, opposite to the decreased CD3+ CD4+ trend
  CD3+ and CD8+ double positive T-cells in tumor: trend was opposite
[6]; single agent, in response to treatment
  ratio of CD8+/CD4+ T-cells in tumors: progressive increase
[7]
  exposure up to which no clinical symptoms: ~50 times therapeutic exposure
  exposure with no adverse clinical symptoms: > 50 times therapeutic exposure
